Test system: normal adjacent tissues
Assay: PiB PET/CT activity of normal adjacent tissues
Format: in vivo, human
Text: The radiologic interpretations of MRI, CT and FDG PET/CT scans from a population of 834 people who participated in the population-based Mayo Clinic Study of Aging (MCSA) from March 2006 through September 2011 were reviewed for the presence of tumors or other brain lesions. (See, Kantarci K, Lowe V, Przybelski S A, et al., “Magnetic resonance spectroscopy, {beta}-amyloid load, and cognition in a population-based sample of cognitively normal older adults”, Neurology 2011; 77:951-8; and Roberts R O, Geda Y E, Knopman D S, et al., “The Mayo Clinic Study of Aging: design and sampling, participation, baseline measures and sample characteristics”, Neuroepidemiology 2008; 30:58-69.) Participants were randomly selected for recruitment in the MCSA from a population of older adult residents of Olmsted County, Minn., USA. Those with neurological, psychological or systemic illnesses were not excluded. Individuals with dementia, or those unable to be imaged for medical reasons were excluded. All patients were imaged with C11-PiB PET/CT, F18-FDG PET/CT and non-contrast MRI at least once as part of the study. Any additional patient imaging and clinical history was then reviewed.
PET imaging was performed as part of the Mayo Clinic Study of Aging as previously described. (See Kantarci K, Lowe V, Przybelski S A, et al., “Magnetic resonance spectroscopy, {beta}-amyloid load, and cognition in a population-based sample of cognitively normal older adults”, Neurology 2011; 77:951-8.) PiB PET/CT, then FDG PET/CT were performed on the same day. PET/CT imaging was performed on a 690XT or DRX PET/CT tomograph (GE Healthcare). The PET sinograms were reconstructed using a fully-3D OSEM algorithm into a 30 cm field of view; the pixel size was 1.2 mm and the slice thickness was 3.27 mm (DRX) or 1.96 mm (690XT). CT imaging was obtained immediately prior to PET acquisition and used for attenuation correction. Cerebral PiB retention, a marker of amyloid deposition, was measured as previously described. (See Kantarci K, Lowe V, Przybelski S A, et al. “Magnetic resonance spectroscopy, {beta}-amyloid load, and cognition in a population-based sample of cognitively normal older adults”, Neurology 2011; 77:951-8.)

[11CH3]Nc1ccc(-c2nc3ccc(O)cc3s2)cc1 [PiB, [N-Methyl-^11C]2-(4′-methylaminophenyl)-6-hydroxybenzothiazole]
average SUVmax (nearby normal bone): 0.6 | average SUVmax (nearby normal grey matter): 1.1 | PiB activity (nearby normal white matter, FIG. 5): high level of nonspecific PiB activity | average background SUVmax (surrounding cerebrospinal fluid): 0.2

Reference: patent publication US10940218B2, “Treatment of meningiomas using phenylbenzothiazole, stilbene, biphenylalkyne, or pyridine derivatives” (MAYO FOUNDATION FOR MEDICAL EDUCATION AND RESEARCH, priority 2012, dated 2021)
